Assay results from US6395896B2, “Pyridazine derivatives, manufacturing method and related composition” (Shiseido Co., Ltd., priority 1999, dated 2002).

Assay: Pigment stabilization effect (sequestering agent combination)
Design: key to Sunlight exposure (80 MJ) Appearance: A: No change; B: No almost change; C: Yes change; key to Sunlight exposure (80 MJ) ΔE: color difference ΔE in Lab space vs. color before sunlight exposure
Conditions: for Sunlight exposure (80 MJ) Appearance / Sunlight exposure (80 MJ) ΔE: amounts wt %
Description: First of all, the photostabilization effect and appearance changes of a composition for each pigment were studied by the following evaluation formulation.
Each test sample was prepared. Observation of appearance changes (visual evaluation) and measurement of color difference (ΔE) were carried out for samples exposed to sunlight (around 80 MJ).
Color difference was measured by Lab coordinate system with spectrophotometer. Color difference was calculated based on the color before sunlight exposure. Namely, from the measured value (L1,a1,b1) before sunlight exposure, color difference (ΔE) was calculated by following formula.

[1] = colorant Blue No. 1 0.0001, photostabilizer 0.02 + Sodium metaphosphate 0.03
[2] = colorant Blue No. 1 0.0001, photostabilizer 0.02 + Trisodium ethylenediamine tetraacetate 0.03
[3] = colorant Blue No. 1 0.0001, photostabilizer 0.02 + Trisodium hydroxyethyl ethylenediamine triacetate 0.03
[4] = colorant Blue No. 1 0.0001, photostabilizer 0.02, no sequestering agent
[5] = colorant Green No. 3 0.0001, photostabilizer 0.02 + Sodium metaphosphate 0.03
[6] = colorant Green No. 3 0.0001, photostabilizer 0.02 + Sodium polyphosphate 0.03
[7] = colorant Green No. 3 0.0001, photostabilizer 0.02 + Trisodium ethylenediamine tetraacetate 0.03
[8] = colorant Green No. 3 0.0001, photostabilizer 0.02, no sequestering agent
[9] = colorant Red No. 106 0.0001, photostabilizer 0.02 + Sodium metaphosphate 0.02
[10] = colorant Red No. 106 0.0001, photostabilizer 0.02 + Sodium polyphosphate 0.02
[11] = colorant Red No. 106 0.0001, photostabilizer 0.02 + Trisodium ethylenediamine tetraacetate 0.02
[12] = colorant Red No. 106 0.0001, photostabilizer 0.02, no sequestering agent
[13] = colorant Red No. 213 0.0001, photostabilizer 0.03 + Sodium metaphosphate 0.05
[14] = colorant Red No. 213 0.0001, photostabilizer 0.03 + Trisodium ethylenediamine tetraacetate 0.05
[15] = colorant Red No. 213 0.0001, photostabilizer 0.03 + Trisodium hydroxyethyl ethylenediamine triacetate 0.05
[16] = colorant Red No. 213 0.0001, photostabilizer 0.03, no sequestering agent
[17] = colorant Red No. 227 0.0001, photostabilizer 0.01 + Sodium metaphosphate 0.02
[18] = colorant Red No. 227 0.0001, photostabilizer 0.01 + Trisodium ethylenediamine tetraacetate 0.02
[19] = colorant Red No. 227 0.0001, photostabilizer 0.01 + Trisodium hydroxyethyl ethylenediamine triacetate 0.02
[20] = colorant Red No. 227 0.0001, photostabilizer 0.01, no sequestering agent
[21] = colorant Red No. 401 0.001, photostabilizer 0.02 + Sodium metaphosphate 0.1
[22] = colorant Red No. 401 0.001, photostabilizer 0.02 + Sodium polyphosphate 0.1
[23] = colorant Red No. 401 0.001, photostabilizer 0.03 + Trisodium ethylenediamine tetraacetate 0.1
[24] = colorant Red No. 401 0.001, photostabilizer 0.03, no sequestering agent
[25] = colorant Yellow No. 5 0.001, photostabilizer 0.01 + Sodium metaphosphate 0.02
[26] = colorant Yellow No. 5 0.001, photostabilizer 0.01 + Sodium polyphosphate 0.02
[27] = colorant Yellow No. 5 0.001, photostabilizer 0.01 + Trisodium ethylenediamine tetraacetate 0.02
[28] = colorant Yellow No. 5 0.001, photostabilizer 0.01, no sequestering agent
[29] = colorant Yellow No. 203 0.001, photostabilizer 0.01 + Sodium metaphosphate 0.02
[30] = colorant Yellow No. 203 0.001, photostabilizer 0.01 + Trisodium ethylenediamine tetraacetate 0.02
[31] = colorant Yellow No. 203 0.001, photostabilizer 0.01 + Trisodium hydroxyethyl ethylenediamine triacetate 0.02
[32] = colorant Yellow No. 203 0.001, photostabilizer 0.01, no sequestering agent
[33] = colorants Red No. 106 0.00001 + Yellow No. 5 0.0001, photostabilizer 0.02 + Trisodium ethylenediamine tetraacetate 0.02
[34] = colorants Red No. 106 0.00001 + Yellow No. 5 0.0001, photostabilizer 0.02, no sequestering agent
[35] = colorants Red No. 106 0.00001 + Yellow No. 203 0.0001, photostabilizer 0.02 + Trisodium hydroxyethyl ethylenediamine triacetate 0.02
[36] = colorants Red No. 106 0.00001 + Yellow No. 203 0.0001, photostabilizer 0.02, no sequestering agent
[37] = colorants Red No. 213 0.00001 + Blue No. 1 0.00001, photostabilizer 0.02 + Trisodium hydroxyethyl ethylenediamine triacetate 0.03
[38] = colorants Red No. 213 0.00001 + Blue No. 1 0.00001, photostabilizer 0.02, no sequestering agent
[39] = colorants Red No. 227 0.0001 + Yellow No. 5 0.0001, photostabilizer 0.02 + Trisodium ethylenediamine tetraacetate 0.02
[40] = colorants Red No. 227 0.0001 + Yellow No. 5 0.0001, photostabilizer 0.02, no sequestering agent
[41] = colorants Red No. 227 0.0001 + Yellow No. 203 0.0001, photostabilizer 0.05 + Sodium metaphosphate 0.02
[42] = colorants Red No. 227 0.0001 + Yellow No. 203 0.0001, photostabilizer 0.05, no sequestering agent
[43] = colorants Red No. 401 0.0001 + Blue No. 1 0.00001, photostabilizer 0.02 + Trisodium ethylenediamine tetraacetate 0.03
[44] = colorants Red No. 401 0.0001 + Blue No. 1 0.00001, photostabilizer 0.02, no sequestering agent
[45] = colorants Red No. 401 0.0001 + Green No. 3 0.00001, photostabilizer 0.02 + Sodium metaphosphate 0.03
[46] = colorants Red No. 401 0.0001 + Green No. 3 0.00001, photostabilizer 0.02, no sequestering agent
[47] = colorants Yellow No. 203 0.0001 + Yellow No. 5 0.0001, photostabilizer 0.02 + Sodium metaphosphate 0.01
[48] = colorants Yellow No. 203 0.0001 + Yellow No. 5 0.0001, photostabilizer 0.02, no sequestering agent

Oc1nncc(N2CCOCC2)c1N1CCOCC1 [4,5-Dimorpholino-3-hydroxypyridazine]
Sunlight exposure (80 MJ) Appearance [1]: A
Sunlight exposure (80 MJ) ΔE [1]: 1.00
Sunlight exposure (80 MJ) Appearance [2]: A
Sunlight exposure (80 MJ) ΔE [2]: 1.18
Sunlight exposure (80 MJ) Appearance [3]: A
Sunlight exposure (80 MJ) ΔE [3]: 1.08
Sunlight exposure (80 MJ) Appearance [4]: B
Sunlight exposure (80 MJ) ΔE [4]: 1.74
Sunlight exposure (80 MJ) Appearance [5]: A
Sunlight exposure (80 MJ) ΔE [5]: 0.28
Sunlight exposure (80 MJ) Appearance [6]: A
Sunlight exposure (80 MJ) ΔE [6]: 0.52
Sunlight exposure (80 MJ) Appearance [7]: A
Sunlight exposure (80 MJ) ΔE [7]: 0.48
Sunlight exposure (80 MJ) Appearance [8]: B
Sunlight exposure (80 MJ) ΔE [8]: 0.75
Sunlight exposure (80 MJ) Appearance [9]: A
Sunlight exposure (80 MJ) ΔE [9]: 0.77
Sunlight exposure (80 MJ) Appearance [10]: A
Sunlight exposure (80 MJ) ΔE [10]: 0.85
Sunlight exposure (80 MJ) Appearance [11]: A
Sunlight exposure (80 MJ) ΔE [11]: 0.84
Sunlight exposure (80 MJ) Appearance [12]: B
Sunlight exposure (80 MJ) ΔE [12]: 1.23
Sunlight exposure (80 MJ) Appearance [13]: A
Sunlight exposure (80 MJ) ΔE [13]: 1.38
Sunlight exposure (80 MJ) Appearance [14]: A
Sunlight exposure (80 MJ) ΔE [14]: 1.45
Sunlight exposure (80 MJ) Appearance [15]: A
Sunlight exposure (80 MJ) ΔE [15]: 1.41
Sunlight exposure (80 MJ) Appearance [16]: B
Sunlight exposure (80 MJ) ΔE [16]: 2.12
Sunlight exposure (80 MJ) Appearance [17]: B
Sunlight exposure (80 MJ) ΔE [17]: 0.84
Sunlight exposure (80 MJ) Appearance [18]: A
Sunlight exposure (80 MJ) ΔE [18]: 0.62
Sunlight exposure (80 MJ) Appearance [19]: A
Sunlight exposure (80 MJ) ΔE [19]: 0.58
Sunlight exposure (80 MJ) Appearance [20]: B
Sunlight exposure (80 MJ) ΔE [20]: 0.98
Sunlight exposure (80 MJ) Appearance [21]: A
Sunlight exposure (80 MJ) ΔE [21]: 0.66
Sunlight exposure (80 MJ) Appearance [22]: A
Sunlight exposure (80 MJ) ΔE [22]: 0.78
Sunlight exposure (80 MJ) Appearance [23]: A
Sunlight exposure (80 MJ) ΔE [23]: 0.71
Sunlight exposure (80 MJ) Appearance [24]: A
Sunlight exposure (80 MJ) ΔE [24]: 0.95
Sunlight exposure (80 MJ) Appearance [25]: A
Sunlight exposure (80 MJ) ΔE [25]: 0.36
Sunlight exposure (80 MJ) Appearance [26]: A
Sunlight exposure (80 MJ) ΔE [26]: 0.33
Sunlight exposure (80 MJ) Appearance [27]: A
Sunlight exposure (80 MJ) ΔE [27]: 0.32
Sunlight exposure (80 MJ) Appearance [28]: B
Sunlight exposure (80 MJ) ΔE [28]: 0.61
Sunlight exposure (80 MJ) Appearance [29]: A
Sunlight exposure (80 MJ) ΔE [29]: 0.22
Sunlight exposure (80 MJ) Appearance [30]: A
Sunlight exposure (80 MJ) ΔE [30]: 0.28
Sunlight exposure (80 MJ) Appearance [31]: A
Sunlight exposure (80 MJ) ΔE [31]: 0.25
Sunlight exposure (80 MJ) Appearance [32]: B
Sunlight exposure (80 MJ) ΔE [32]: 0.95
Sunlight exposure (80 MJ) Appearance [33]: A
Sunlight exposure (80 MJ) ΔE [33]: 0.98
Sunlight exposure (80 MJ) Appearance [34]: B
Sunlight exposure (80 MJ) ΔE [34]: 1.33
Sunlight exposure (80 MJ) Appearance [35]: A
Sunlight exposure (80 MJ) ΔE [35]: 0.75
Sunlight exposure (80 MJ) Appearance [36]: A
Sunlight exposure (80 MJ) ΔE [36]: 1.10
Sunlight exposure (80 MJ) Appearance [37]: A
Sunlight exposure (80 MJ) ΔE [37]: 1.22
Sunlight exposure (80 MJ) Appearance [38]: B
Sunlight exposure (80 MJ) ΔE [38]: 1.88
Sunlight exposure (80 MJ) Appearance [39]: A
Sunlight exposure (80 MJ) ΔE [39]: 0.71
Sunlight exposure (80 MJ) Appearance [40]: B
Sunlight exposure (80 MJ) ΔE [40]: 1.02
Sunlight exposure (80 MJ) Appearance [41]: A
Sunlight exposure (80 MJ) ΔE [41]: 1.01
Sunlight exposure (80 MJ) Appearance [42]: A
Sunlight exposure (80 MJ) ΔE [42]: 1.55
Sunlight exposure (80 MJ) Appearance [43]: A
Sunlight exposure (80 MJ) ΔE [43]: 0.88
Sunlight exposure (80 MJ) Appearance [44]: A
Sunlight exposure (80 MJ) ΔE [44]: 1.36
Sunlight exposure (80 MJ) Appearance [45]: A
Sunlight exposure (80 MJ) ΔE [45]: 0.73
Sunlight exposure (80 MJ) Appearance [46]: B
Sunlight exposure (80 MJ) ΔE [46]: 1.45
Sunlight exposure (80 MJ) Appearance [47]: A
Sunlight exposure (80 MJ) ΔE [47]: 0.48
Sunlight exposure (80 MJ) Appearance [48]: A
Sunlight exposure (80 MJ) ΔE [48]: 0.78
color difference ΔE (with a sequestering agent, compared with compositions not having a sequestering agent, Tables 24 to 26): very small
change of appearance of the composition (with a sequestering agent, Tables 24 to 26): small
